Reference: patent US20240358693A1, “METHODS OF TREATING PAIN” (Aisa Pharma, Inc., priority 2023, published 2024)

System: participants with SSc-RP
Assay: Scleroderma Health Assessment Questionnaire (SHAQ): disability indices and visual analog scales
Format: in vivo, human
Description: The standard, validated, patient reported outcome measures tool for SSc patients, the Scleroderma Health Assessment Questionnaire (SHAQ), will be used to assess the participant qualify of life. Details are attached in the Appendix. The participant quality of life will be scored, and a disability index calculated for each questionnaire completed by the patient at Screening and each in-clinic visit. The absolute change in participant quality of life from baseline to the end of each dosing period will be calculated similar to frequency data as before.
The SHAQ includes a Raynaud's VAS, which will be reported at screening and each in-clinic visit. The absolute change in Raynaud-VAS, assessed by the participants response to the SHAQ question ‘In the past 7 days, how much have your Raynaud's interfered with your daily activities?’ at baseline and the end of each dosing period will be calculated similar to frequency data as before.
The SHAQ is used to calculate a Disability Index to assess the participant qualify of life. The eight categories assessed by the Disability Index are 1) dressing and grooming, 2) arising, 3) eating, 4) walking, 5) hygiene, 6) reach, 7) grip, and 8) common daily activities. For each of these categories, patients report the amount of difficulty they have in performing two or three specific activities.
There are four possible responses for the Disability Index questions: • Without any difficulty=0 • With some difficulty=1 • With much difficulty=2 • Unable to do=3. • The highest score reported by the patient for any component question of the eight categories determines the score for that category. • If a component question is left blank or the response is too ambiguous to assign a score, then the score for that category is determined by the remaining completed question(s). • If all component questions are blank or if more than one answer is given, then follow up with the respondent is required. • If the respondent's mark is between the response columns, then move it to the closest one. If it's directly between the two, move it to the higher one.
Each of the disability items on the SHAQ has a companion aids/devices variable that is used to record what type(s) of assistance, if any, the participant uses for his/her usual activities. These variables (see below) are coded as follows: • 0=No assistance is needed. • 1=A special device is used by the patient in his/her usual activities. • 2=The patient usually needs help from another person. • 3=The patient usually needs BOTH a special device AND help from another person.
The scoring variables and scoring rules permit the computation of two disability indices, the Standard Disability Index and the Alternative Disability Index.
This question results in a new set of category scores that are computed by adjusting the score for each category, if necessary, based on the patient's use of an aid or device or assistance for that category. If either devices and/or help from another person are checked for a category, the score is set to “2”, unless the score is already “3” (i.e., scores of “0” or “1” are increased to “2”). For example, if the highest score for the dressing category is “1”, and the patient says they use a device for dressing, the computed category score would be “2”. The sum of the computed categories scores is then calculated and divided by the number of categories answered. This gives a score in the 0 to 3 range.
The aid and device variables are not used to calculate the alternative disability index; it is calculated by adding the scores for each of the categories and dividing by the number of categories answered. This gives a score in the 0 to 3 range.
The standard, validated, patient reported outcome measures tool for SSc patients, the SHAQ, was collected at the time points specified in the study schedules (FIG. 2 and FIGS. 4A and 4B) to assess the participant's quality of life. The SHAQ included a Raynaud's VAS that will also be reported separately.

[1] = Cilnidipine 20 mg (N = 3), patients with diagnosis of SSc, sensitivity analysis, Modified ITT, Part A
[2] = Cilnidipine 20 mg (n = 3), Table R
[3] = Cilnidipine 20 mg (n = 3), mITT population
[4] = Cilnidipine 20 mg, Day 12, PP Population Part A, SSc patients
[5] = Cilnidipine 20 mg, Day 12, PP Population, Part A
[6] = Cilnidipine 20 mg, PP Population Part A, SSc patients

For COCCOC(=O)C1=C(C)NC(C)=C(C(=O)OC/C=C/c2ccccc2)C1c1cccc([N+](=O)[O-])c1 (centres unmarked) [Cilnidipine, cilnidipine], the “SHAQ Standard Disability Index: Change from Baseline, Median” value [1] was −0.125, the “SHAQ Standard Disability Index: Day 12, Mean” value [1] was 0.125 and the “SHAQ Standard Disability Index: Day 12, Median” value [1] was 0.125. For the same molecule, the “SHAQ Standard Disability Index: Percent Change from Baseline, Mean” value [1] was −50.00%, the “SHAQ Standard Disability Index: Percent Change from Baseline, Median” value [1] was −50.00% and the “Alternative disability index, improvement” value [2] was 42% improvement. The “Standard disability index, improvement” value [2] was 50% improvement, the “VAS - Breathing problems, improvement” value [2] was 75% improvement* and the “VAS - Raynaud's, improvement” value [2] was 55% improvement. For the same molecule, the “VAS Overall Disease Severity, improvement” value [2] was 63% improvement, the “VAS- PAIN, improvement” value (Cilnidipine 20 mg (n = 3), Table R, baseline 2.17 on a 0-10 VAS) was 53% improvement* and the “SHAQ % change VAS Raynauds” value [3] was −49%. For the same molecule, the “SHAQ % change in Alternative Disability Index” value [3] was −42%, the “SHAQ % change in Pain” value [3] was −53% and the “SHAQ % change in Standard Disability Index” value [3] was −50%. For the same molecule, the “SHAQ % change overall SSc Disease Severity” value [3] was −63%, the “SHAQ % improvement in Breathing (median)” value [3] was 67% and the “SHAQ % improvement in VAS Digital Ulcers” value [3] was 35%. For the same molecule, the “SHAQ Visual Analogue Scale - Breathing Problems, Change from Baseline, Mean” value [4] was −0.475, the “SHAQ Visual Analogue Scale - Breathing Problems, Change from Baseline, Median” value [4] was −0.250 and the “SHAQ Visual Analogue Scale - Breathing Problems, Percent Change from Baseline, Mean” value [4] was 3.73%. For the same molecule, the “SHAQ Visual Analogue Scale - Breathing Problems, Percent Change from Baseline, Median” value [4] was −17.54%, the “SHAQ Visual Analogue Scale - Finger Ulcers, Change from Baseline, Mean” value [4] was −0.933 and the “SHAQ Visual Analogue Scale - Finger Ulcers, Change from Baseline, Median” value [4] was 0.000. For the same molecule, the “SHAQ Visual Analogue Scale - Finger Ulcers, Percent Change from Baseline, Mean” value [4] was 35.29%, the “SHAQ Visual Analogue Scale - Finger Ulcers, Percent Change from Baseline, Median” value [4] was 35.29% and the “SHAQ Visual Analogue Scale - Intestinal Problems, Change from Baseline, Mean” value [4] was 0.150. The “SHAQ Visual Analogue Scale - Intestinal Problems, Change from Baseline, Median” value [4] was 0.150, the “SHAQ Visual Analogue Scale - Intestinal Problems, Percent Change from Baseline, Mean” value [4] was −10.00% and the “SHAQ Visual Analogue Scale - Intestinal Problems, Percent Change from Baseline, Median” value [4] was 30.00%. The “SHAQ Visual Analogue Scale - Overall Disease Severity, Change from Baseline, Mean” value [4] was −2.000, the “SHAQ Visual Analogue Scale - Overall Disease Severity, Change from Baseline, Median” value [4] was −1.700 and the “SHAQ Visual Analogue Scale - Overall Disease Severity, Percent Change from Baseline, Mean” value [4] was −64.20%. The “SHAQ Visual Analogue Scale - Overall Disease Severity, Percent Change from Baseline, Median” value [4] was −64.44%, the “SHAQ Visual Analogue Scale - Pain, Change from Baseline, Mean” value [4] was −0.650 and the “SHAQ Visual Analogue Scale - Pain, Change from Baseline, Median” value [4] was −0.650. The “SHAQ Visual Analogue Scale - Pain, Percent Change from Baseline, Mean” value [4] was −34.56%, the “SHAQ Visual Analogue Scale - Pain, Percent Change from Baseline, Median” value [4] was −51.06% and the “SHAQ Visual Analogue Scale - Raynaud's, Change from Baseline, Mean” value [4] was −1.200. For the same molecule, the “SHAQ Visual Analogue Scale - Raynaud's, Change from Baseline, Median” value [4] was −1.050, the “SHAQ Visual Analogue Scale - Raynaud's, Percent Change from Baseline, Mean” value [4] was −41.11% and the “SHAQ Visual Analogue Scale - Raynaud's, Percent Change from Baseline, Median” value [4] was −38.67%. For the same molecule, the “SHAQ Alternative Disability Index: Change from Baseline, Mean” value [5] was 0.000, the “SHAQ Alternative Disability Index: Change from Baseline, Median” value [5] was −0.063 and the “SHAQ Alternative Disability Index: In-Clinic Visit (Day 12), Mean” value [5] was 0.219. For the same molecule, the “SHAQ Alternative Disability Index: In-Clinic Visit (Day 12), Median” value [5] was 0.188, the “SHAQ Alternative Disability Index: Percent Change from Baseline, Mean” value [5] was 5.56% and the “SHAQ Alternative Disability Index: Percent Change from Baseline, Median” value [5] was −33.33%. The “SHAQ Standard Disability Index: Change from Baseline, Mean” value [5] was −0.063, the “SHAQ Standard Disability Index: Change from Baseline, Median” value [5] was −0.063 and the “SHAQ Standard Disability Index: In-Clinic Visit (Day 12), Mean” value [5] was 0.281. For the same molecule, the “SHAQ Standard Disability Index: In-Clinic Visit (Day 12), Median” value [5] was 0.188, the “SHAQ Standard Disability Index: Percent Change from Baseline, Mean” value [5] was −26.67% and the “SHAQ Standard Disability Index: Percent Change from Baseline, Median” value [5] was −33.33%. The “SHAQ Visual Analogue Scale - Pain: Change from Baseline, Mean” value [5] was −0.650, the “SHAQ Visual Analogue Scale - Pain: Change from Baseline, Median” value [5] was −0.650 and the “SHAQ Visual Analogue Scale - Pain: In-Clinic Visit (Day 12), Mean” value [5] was 1.875. The “SHAQ Visual Analogue Scale - Pain: In-Clinic Visit (Day 12), Median” value [5] was 1.400, the “SHAQ Visual Analogue Scale - Pain: Percent Change from Baseline, Mean” value [5] was −34.56% and the “SHAQ Visual Analogue Scale - Pain: Percent Change from Baseline, Median” value [5] was −51.06%. The “SHAQ Visual Analogue Scale - Breathing Problems, In-Clinic Visit (Day 12), Mean” value [6] was 0.850 and the “SHAQ Visual Analogue Scale - Breathing Problems, In-Clinic Visit (Day 12), Median” value [6] was 0.450.
